Measurements reported in patent publication US20080014264A1, “NOVEL PHARMACEUTICAL COMPOSITIONS COMPRISING LEVETIRACETAM” (UCB, S.A., priority 2006, published 2008).

Columns and labels:
[1] = Solubility of the active ingredient; assay type: physicochemical
Text: In fact levetiracetam is a very soluble active ingredient, so it is difficult to slow down the release. Moreover another problem consists in the reduction of the release rate, while keeping a reasonable size for a high dose of very soluble active ingredient.

[2] = A. J. Gower et al., Eur. J. Pharmacol., 222, 1992; cited from earlier work

solubility [1]	Structure (SMILES)	activity in the treatment of epilepsy [2]
very soluble	CC[C@@H](C(N)=O)N1CCCC1=O [levetiracetam, (S)-(−)-alpha-ethyl-2-oxo-1-pyrrolidine acetamide]	–
–	CC[C@H](C(N)=O)N1CCCC1=O [(R)-(+)-alpha-ethyl-2-oxo-1-pyrrolidine acetamide]	completely lacks activity
